What was measured:
Test in all cases: X-ray crystal structure of complex
Type in all cases: binding
MsmUdgX [1] = biological target: T1, MsmUdgX (Mycolicibacterium smegmatis, UniProt A0QP43, H109Q); details: uracil excised from 5-mer ssDNA TTUTT, DNA backbone not modelled; active site; pH 7.0
T1 construct: gene MSMEG_0265; N-terminal 6xHis tag (pET14b), expressed in E. coli Rosetta (DE3), Ni-NTA and Superdex-75 purified; 4Fe-4S protein

MsmUdgX [2] = biological target: T2, MsmUdgX (Mycolicibacterium smegmatis, UniProt A0QP43); details: uracil excised from 5-mer ssDNA TTUTT; active site; pH 7.0
T2 construct: gene MSMEG_0265; N-terminal 6xHis tag (pET14b), expressed in E. coli Rosetta (DE3), Ni-NTA and Superdex-75 purified; 4Fe-4S protein
T2 sequence (A0QP43 1-209): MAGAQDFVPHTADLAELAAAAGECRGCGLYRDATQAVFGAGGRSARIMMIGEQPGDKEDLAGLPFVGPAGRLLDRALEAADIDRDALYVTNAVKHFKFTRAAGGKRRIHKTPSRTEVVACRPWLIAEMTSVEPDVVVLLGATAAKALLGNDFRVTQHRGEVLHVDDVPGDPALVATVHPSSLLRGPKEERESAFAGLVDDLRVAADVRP

MsmUdgX [3] = biological target: T3, MsmUdgX (Mycolicibacterium smegmatis, UniProt A0QP43, H109S/R184A); details: uracil excised from 5-mer ssDNA TTUTT, DNA backbone not modelled; active site; pH 7.0
T3 construct: gene MSMEG_0265; N-terminal 6xHis tag (pET14b), expressed in E. coli Rosetta (DE3), Ni-NTA and Superdex-75 purified; 4Fe-4S protein

MsmUdgX [4] = biological target: T4, MsmUdgX (Mycolicibacterium smegmatis, UniProt A0QP43, H109C); details: uracil excised from 5-mer ssDNA TTUTT, DNA backbone not modelled; active site; pH 7.0
T4 construct: gene MSMEG_0265; N-terminal 6xHis tag (pET14b), expressed in E. coli Rosetta (DE3), Ni-NTA and Superdex-75 purified; 4Fe-4S protein

MsmUdgX [5] = biological target: T5, MsmUdgX (Mycolicibacterium smegmatis, UniProt A0QP43, H109K); details: uracil excised from 5-mer ssDNA TTUTT, DNA backbone not modelled; active site; pH 7.0
T5 construct: gene MSMEG_0265; N-terminal 6xHis tag (pET14b), expressed in E. coli Rosetta (DE3), Ni-NTA and Superdex-75 purified; 4Fe-4S protein

MsmUdgX [6] = biological target: T6, MsmUdgX (Mycolicibacterium smegmatis, UniProt A0QP43, H109A); details: uracil excised from 5-mer ssDNA TTUTT, DNA backbone not modelled; active site; pH 7.0
T6 construct: gene MSMEG_0265; N-terminal 6xHis tag (pET14b), expressed in E. coli Rosetta (DE3), Ni-NTA and Superdex-75 purified; 4Fe-4S protein

MsmUdgX [7] = biological target: T7, MsmUdgX (Mycolicibacterium smegmatis, UniProt A0QP43, H109G); details: uracil excised from 5-mer ssDNA TTUTT, DNA backbone not modelled; active site; pH 7.0
T7 construct: gene MSMEG_0265; N-terminal 6xHis tag (pET14b), expressed in E. coli Rosetta (DE3), Ni-NTA and Superdex-75 purified; 4Fe-4S protein
T7 sequence (A0QP43 entry or part of it H109G): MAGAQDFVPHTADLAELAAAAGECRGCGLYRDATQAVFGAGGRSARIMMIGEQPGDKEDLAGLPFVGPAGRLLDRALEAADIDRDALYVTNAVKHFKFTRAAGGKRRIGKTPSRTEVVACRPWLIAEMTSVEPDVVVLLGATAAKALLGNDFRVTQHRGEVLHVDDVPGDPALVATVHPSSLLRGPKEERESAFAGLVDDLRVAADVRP

T6 sequence (A0QP43 entry or part of it H109A): as the sequence (A0QP43 entry or part of it H109G) above, with G109A counted along it
T5 sequence (A0QP43 entry or part of it H109K): as the sequence (A0QP43 entry or part of it H109G) above, with G109K counted along it
T4 sequence (A0QP43 entry or part of it H109C): as the sequence (A0QP43 entry or part of it H109G) above, with G109C counted along it
T3 sequence (A0QP43 entry or part of it H109S/R184A): as the sequence (A0QP43 entry or part of it H109G) above, with G109S, R184A counted along it
T1 sequence (A0QP43 entry or part of it H109Q): as the sequence (A0QP43 entry or part of it H109G) above, with G109Q counted along it

Structure (SMILES): O=c1cc[nH]c(=O)[nH]1 [uracil]
- X-ray crystal structure of complex (MsmUdgX [1]): H109Q (green, PDB ID: 8IIP)
- X-ray crystal structure of complex (MsmUdgX [2]): Uracil bound in the active site of MsmUdgX, post its cleavage from the DNA backbone
- X-ray crystal structure of complex (MsmUdgX [3]): H109S/R184A (orange, PDB ID: 8IIT)
- X-ray crystal structure of complex (MsmUdgX [4]): H109C (magenta, PDB ID: 8III)
- X-ray crystal structure of complex (MsmUdgX [5]): Crystal structures of H109K (yellow, (PDB ID: 8IIN)
- X-ray crystal structure of complex (MsmUdgX [6]): H109A (brown, PDB ID: 8IIG), mutants with uracil in the active sites cavity
- X-ray crystal structure of complex (MsmUdgX [7]): H109G (cyan, PDB ID: 8IIL)

From PMC10359453, “Mutational and structural analyses of UdgX: insights into the active site pocket architecture and its evolution” (Nucleic Acids Research, 2023)
